Active and inactive are the calls of the source.
Key:
[1] = test system: BJ; experiment: BJ-TERT-LT-ST fibroblast viability loss – cell-based, RAS-independent, luminescence, dose response (AID 1935); format: functional; conditions: Homo sapiens;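 also: BJ fibroblasts immortalized with TERT plus LT and ST oncogenes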
[2] = test system: BJ; experiment: BJ-TERT fibroblast viability loss – cell-based, RAS-independent, luminescence, dose response (AID 1933); format: functional; conditions: Homo sapiens
[3] = HEK-293T viability loss after treatment – luminescence, T-cell screen hits, cytotoxicity control for TCR NF-kB inhibitor project, dose response (AID 489026); format: functional, cell-based;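 also: cells exposed to compound about 14 hours before the viability readout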
[4] = test system: BJ; experiment: cells; format: functional, cell-based; conditions: Homo sapiens
[5] = DRD fibroblast viability loss – cell-based, non-viral oncogenic, luminescence, dose response (AID 1934); format: functional; conditions: Homo sapiens
[6] = target: T1, Calpain-2 catalytic subunit (Sus scrofa, UniProt P43367); experiment: m-calpain protease blockers, concentration series – biochemical, fluorogenic peptide substrate, dose response (AID 1420); format: functional
T1 sequence (P43367 whole entry): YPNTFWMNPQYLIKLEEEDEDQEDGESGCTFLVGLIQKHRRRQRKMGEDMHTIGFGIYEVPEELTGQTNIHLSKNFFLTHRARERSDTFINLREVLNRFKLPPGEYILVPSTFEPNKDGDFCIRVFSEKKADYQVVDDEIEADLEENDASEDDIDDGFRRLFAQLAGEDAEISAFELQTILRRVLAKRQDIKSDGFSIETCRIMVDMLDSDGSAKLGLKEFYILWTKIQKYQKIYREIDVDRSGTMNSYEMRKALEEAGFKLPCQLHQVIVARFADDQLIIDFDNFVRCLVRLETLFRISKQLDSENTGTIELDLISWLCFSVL

[7] = target: T2, Caspase-6 (Homo sapiens, UniProt P55212); experiment: inhibition of CASP6 peptide cleavage – biochemical, VEID-R110 fluorescence, cherry-pick, dose response (AID 720632)
T2 sequence (P55212 whole entry): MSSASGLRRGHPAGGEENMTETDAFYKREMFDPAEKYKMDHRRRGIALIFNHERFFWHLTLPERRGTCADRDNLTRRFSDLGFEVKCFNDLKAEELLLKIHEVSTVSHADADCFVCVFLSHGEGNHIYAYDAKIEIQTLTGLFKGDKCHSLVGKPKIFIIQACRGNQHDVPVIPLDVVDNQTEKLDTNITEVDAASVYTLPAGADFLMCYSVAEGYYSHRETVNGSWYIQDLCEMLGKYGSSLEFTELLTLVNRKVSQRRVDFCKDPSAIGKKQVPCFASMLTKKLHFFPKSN

[8] = luciferase reporter signal suppression in cells – H4 neuroglioma cells, luminescence, dose response (AID 1990); format: functional, cell-based
[9] = target: Large T antigen (Simian virus 40, UniProt P03070); format: functional, Betapolyomavirus macacae;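 also: Confirmatory-stage PubChem screen for compounds that inhibit SV40 T antigen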
Large T antigen, sequence (P03070 whole entry): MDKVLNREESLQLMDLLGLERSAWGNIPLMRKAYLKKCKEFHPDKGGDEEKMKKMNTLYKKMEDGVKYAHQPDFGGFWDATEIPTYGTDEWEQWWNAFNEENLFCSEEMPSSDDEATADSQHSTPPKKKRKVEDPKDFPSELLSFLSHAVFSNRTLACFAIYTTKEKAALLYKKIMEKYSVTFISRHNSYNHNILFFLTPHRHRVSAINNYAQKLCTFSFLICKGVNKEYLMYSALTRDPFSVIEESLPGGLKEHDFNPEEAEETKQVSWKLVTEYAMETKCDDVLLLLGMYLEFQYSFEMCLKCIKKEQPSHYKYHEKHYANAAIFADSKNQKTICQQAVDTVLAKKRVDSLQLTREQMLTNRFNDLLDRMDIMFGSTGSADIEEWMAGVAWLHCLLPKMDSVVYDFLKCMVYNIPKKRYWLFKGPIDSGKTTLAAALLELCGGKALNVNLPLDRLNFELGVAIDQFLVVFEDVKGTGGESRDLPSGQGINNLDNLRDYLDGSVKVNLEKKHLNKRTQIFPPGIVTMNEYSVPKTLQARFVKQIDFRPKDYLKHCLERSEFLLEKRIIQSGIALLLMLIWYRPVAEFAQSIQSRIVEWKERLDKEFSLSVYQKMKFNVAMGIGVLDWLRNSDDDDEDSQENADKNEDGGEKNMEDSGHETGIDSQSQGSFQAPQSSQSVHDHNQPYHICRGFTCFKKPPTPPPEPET

[10] = target: FAD-linked sulfhydryl oxidase ALR (Homo sapiens, UniProt P55789); experiment: ALR-catalysed DTT oxidation blockers – biochemical, H2O2 detection, luminescence, cherry-pick, dose response (AID 493248)
FAD-linked sulfhydryl oxidase ALR, sequence (P55789 whole entry): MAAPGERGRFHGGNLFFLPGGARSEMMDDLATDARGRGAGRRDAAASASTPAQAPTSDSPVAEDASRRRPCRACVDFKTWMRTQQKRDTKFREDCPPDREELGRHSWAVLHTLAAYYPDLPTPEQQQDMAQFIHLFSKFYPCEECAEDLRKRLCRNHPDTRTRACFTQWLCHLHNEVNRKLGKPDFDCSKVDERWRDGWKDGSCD

[11] = alpha-synuclein stem-loop luciferase translation blockers – H4 neuroglioma cells, luminescence, confirmation (AID 1988); format: functional, cell-based
[12] = Luminescence Cell-Based Dose Response HTS to Identify Inhibitors of 5'UTR Stem-Loop Driven Prion Protein mRNA Translation in H4 Neuroglioblastoma Cells. [Related pubchem assays: 1827 (Project Summary), 1813 (Primary HTS)]; format: functional
[13] = target: Induced myeloid leukemia cell differentiation protein Mcl-1 (Homo sapiens, UniProt Q07820); format: functional
Induced myeloid leukemia cell differentiation protein Mcl-1, sequence (Q07820 whole entry): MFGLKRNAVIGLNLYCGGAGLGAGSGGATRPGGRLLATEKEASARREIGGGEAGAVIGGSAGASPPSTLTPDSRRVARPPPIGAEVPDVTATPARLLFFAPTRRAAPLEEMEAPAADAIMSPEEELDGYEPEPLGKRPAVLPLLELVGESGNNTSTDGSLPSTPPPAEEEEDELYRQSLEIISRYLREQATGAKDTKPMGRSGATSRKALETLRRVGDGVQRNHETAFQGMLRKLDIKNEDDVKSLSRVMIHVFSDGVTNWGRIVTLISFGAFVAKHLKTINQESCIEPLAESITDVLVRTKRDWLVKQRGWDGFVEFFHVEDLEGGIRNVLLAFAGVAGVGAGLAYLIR

[14] = target: Cytochrome P450 3A4 (Homo sapiens, UniProt P08684); conditions: Potency;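 also: confirmatory qHTS run detecting inhibitors and substrates of CYP3A4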
Cytochrome P450 3A4, sequence (P08684 whole entry): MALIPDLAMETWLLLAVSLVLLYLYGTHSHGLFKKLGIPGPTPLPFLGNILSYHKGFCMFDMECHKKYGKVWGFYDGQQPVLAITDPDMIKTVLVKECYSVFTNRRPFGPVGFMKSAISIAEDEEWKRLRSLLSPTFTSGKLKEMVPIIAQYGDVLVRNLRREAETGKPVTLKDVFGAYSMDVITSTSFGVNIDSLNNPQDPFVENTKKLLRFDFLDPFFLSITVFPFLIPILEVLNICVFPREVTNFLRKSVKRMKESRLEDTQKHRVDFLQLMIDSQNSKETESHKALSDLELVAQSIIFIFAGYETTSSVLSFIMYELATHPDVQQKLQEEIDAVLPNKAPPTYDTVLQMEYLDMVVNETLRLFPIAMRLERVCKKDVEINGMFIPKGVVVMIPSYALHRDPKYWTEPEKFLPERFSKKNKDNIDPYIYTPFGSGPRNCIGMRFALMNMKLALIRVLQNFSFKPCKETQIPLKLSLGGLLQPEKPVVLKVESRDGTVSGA

[15] = Luminescence Cell-Based Dose Retest to Confirm Inhibitors of Cancer Stem Cells. [Related pubchem assays (depositor defined):AID2717, AID2721]; format: functional; conditions: Homo sapiens
[16] = target: Cytochrome P450 2C19 (Homo sapiens, UniProt P33261); experiment: Cytochrome panel assay with activity outcomes. Panel member name: p450-cyp2c19 Compounds with AC50 equal or less than 10 uM are considered active; format: functional; conditions: read-out: AC50
Cytochrome P450 2C19, sequence (P33261 whole entry): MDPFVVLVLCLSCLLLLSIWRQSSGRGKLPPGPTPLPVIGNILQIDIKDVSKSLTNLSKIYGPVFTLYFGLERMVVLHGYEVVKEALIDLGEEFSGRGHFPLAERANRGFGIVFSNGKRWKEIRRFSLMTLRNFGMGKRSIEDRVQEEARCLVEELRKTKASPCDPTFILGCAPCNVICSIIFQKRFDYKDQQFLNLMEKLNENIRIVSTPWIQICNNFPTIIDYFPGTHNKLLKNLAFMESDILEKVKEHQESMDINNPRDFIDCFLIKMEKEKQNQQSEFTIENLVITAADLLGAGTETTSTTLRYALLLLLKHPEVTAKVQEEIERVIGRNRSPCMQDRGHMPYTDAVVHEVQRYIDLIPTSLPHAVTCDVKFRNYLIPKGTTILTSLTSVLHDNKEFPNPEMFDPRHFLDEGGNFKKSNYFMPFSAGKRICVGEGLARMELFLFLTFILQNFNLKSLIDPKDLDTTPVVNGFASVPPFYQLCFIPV

CCOc1ccc(N(CC(=O)Nc2ccccc2C)S(=O)(=O)c2c(C)noc2C)cc1
EC50 [1]: 16.9 µM (active) | EC50 [2]: 5.06 µM (active) | IC50 [3]: > 80 µM (inactive) | EC50 [4]: 29.9 µM (active) | EC50 [5]: 4.15 µM (active)

COc1cc(-n2c(=O)c3ccccc3n(Cc3cccc(C)c3)c2=O)cc(OC)c1OC
IC50 [6]: 19.3 µM (active)

Nc1ccc(OC(=O)Nc2ccc(O)cc2)cc1
AC50 [7]: 18.7 µM (active) | EC50 [8]: 11.2 µM (active) | IC50 [9]: 6.52 µM (active) | AC50 [10]: 1.38 µM (active) | EC50 [11]: 9.76 µM (active) | EC50 [12]: 11.7 µM (active)

OC1=C2C(=Nc3ccc4ncccc4c3C2c2ccc(O)c(O)c2)CCC1 (stereo not given)
IC50 [13]: 4.38 µM (active)

CC1CC(O)[C@]2(O)[C@]13CC(=O)OC[C@@]2(C)[C@@](C)(O)C(=O)C3 (stereo not given in full)
AC50 [14]: 31.6 µM (inconclusive)

Cc1ccccc1NC(=S)NCCC(c1ccccc1)c1ccccc1
IC50 [6]: 2.48 µM (not active)

CCCC(=O)Nc1nc2ccc(NC(=O)c3c(F)c(F)c(OC)c(F)c3F)cc2s1
EC50 [1]: 77.5 µM (inconclusive) | EC50 [2]: 4.47 µM (active) | IC50 [3]: > 80 µM (inactive) | EC50 [4]: > 150 µM (not active) | EC50 [5]: 2.2 µM (active) | AC50 [15]: 367 nM (active)

COc1ccc(C(=O)Nc2cccc(-c3cc4ccccc4oc3=O)c2)cc1[N+](=O)[O-]
IC50 [6]: 12.3 µM (not active)

Cc1ccc(NC(S)=NC(C)CCc2ccccc2)cc1C (stereo not given)
IC50 [6]: 17.3 µM (not active)

Oc1ccccc1C1Nc2cccc3cccc(c23)N1
IC50 [13]: 3.25 µM (active) | AC50 [16]: 3.16 µM (inconclusive)

COc1ccc(/C=N/Nc2nncc3ccccc23)cc1
EC50 [1]: 18.6 µM (active) | EC50 [2]: 8.72 µM (active) | EC50 [4]: 9.05 µM (active) | EC50 [5]: 7.41 µM (active)

C/C(=N\OCC(=O)NC12CC3CC(CC(C3)C1)C2)c1cc2ccccc2o1
IC50 [6]: 8.83 µM (not active)

Reference: ChEMBL document CHEMBL1201862, “PubChem BioAssay data set” (2004)
